From US20250230147A1, “LACTAMS AS CBL-B INHIBITORS” (Genentech, Inc., priority 2021, published 2025) come the findings set out here.

The target in one assay is Cbl-b (Homo sapiens (Human), UniProt Q13191). As to the kind of experiment: Cbl-b LCK Ub TR-FRET assay (Cbl-b Lck HTRF). In kind it is biochemical. The method in brief: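 Biotin-Cbl-b preincubated with compound (10-point 3-fold series) 60 min, then His-LCK with 1 mM ATP (2× mixture) added for 90 min at room temperature. Ubiquitination detected by TR-FRET using HA-ubiquitin/UBE2D2 adduct, anti-HA-D2 and streptavidin-Eu; IC50 normalised to no-LCK and DMSO controls.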

A further assay deals with c-Cbl (Homo sapiens (Human), UniProt P22681). As to the kind of experiment: C-Cbl LCK Ub TR-FRET assay (c-cbl Lck HTRF). To be noted: for (fold-selectivity): C-cbl Lck HTRF IC50 relative to Cbl-b Lck HTRF IC50. In kind it is biochemical. The method in brief:
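After the ubiquitination reaction, detection mixture was added and plates incubated 20 min at room temperature before reading. IC50 values were calculated with wells lacking LCK as the low control and DMSO as the high control.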

pIC50: −log10 of the molar value.

Chain of Cbl-b (Q13191 40-426): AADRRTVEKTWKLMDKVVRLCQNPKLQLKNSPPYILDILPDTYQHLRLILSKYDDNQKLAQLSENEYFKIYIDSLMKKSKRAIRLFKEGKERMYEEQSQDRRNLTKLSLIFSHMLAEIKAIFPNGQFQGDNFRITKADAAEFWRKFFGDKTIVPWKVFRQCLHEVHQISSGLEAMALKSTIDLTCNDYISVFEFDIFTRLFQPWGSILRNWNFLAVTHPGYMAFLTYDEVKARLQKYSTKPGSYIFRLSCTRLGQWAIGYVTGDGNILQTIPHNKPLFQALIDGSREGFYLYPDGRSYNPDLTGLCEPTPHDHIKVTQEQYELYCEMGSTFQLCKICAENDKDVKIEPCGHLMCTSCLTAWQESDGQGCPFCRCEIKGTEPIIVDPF
Chain of c-Cbl (P22681 47-435): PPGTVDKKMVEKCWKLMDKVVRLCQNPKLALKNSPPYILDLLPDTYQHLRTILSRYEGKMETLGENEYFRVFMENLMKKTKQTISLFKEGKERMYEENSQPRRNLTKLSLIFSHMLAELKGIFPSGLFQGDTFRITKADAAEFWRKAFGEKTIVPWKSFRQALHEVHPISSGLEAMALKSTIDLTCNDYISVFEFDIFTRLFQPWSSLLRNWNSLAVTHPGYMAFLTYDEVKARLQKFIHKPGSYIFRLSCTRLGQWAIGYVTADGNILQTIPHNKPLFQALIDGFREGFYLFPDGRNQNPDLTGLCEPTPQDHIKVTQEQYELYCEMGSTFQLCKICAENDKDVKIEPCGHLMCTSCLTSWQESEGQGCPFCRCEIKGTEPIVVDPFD

`CC(C)[C@H]1CN(C)CCN1Cc1cc2c(c(C(F)(F)F)c1)CN(c1cccc(C3([C@@H](F)c4nncn4-c4ccccc4)COC3)c1)C2=O` [Compound 259, 2-(3-(3-((R)-fluoro(4-phenyl-4H-1,2,4-triazol-3-yl)methyl)oxetan-3-yl)phenyl)-6-(((S)-2-isopropyl-4-methylpiperazin-1-yl)methyl)-4-(trifluoromethyl)isoindolin-1-one] showed a pIC50 on Cbl-b of 5.51. Besides, on c-Cbl, the negative logarithm of the IC50 (pIC50) was 5.51 and the “(fold-selectivity)” value is recorded as “(1.0x)”.

On Cbl-b, `CC(C)[C@H]1CN(C)CCN1Cc1cc2c(c(C(F)(F)F)c1)CN(c1cccc(C3([C@H](F)c4nncn4-c4ccccc4)COC3)c1)C2=O` [Compound 260, 2-(3-(3-((S)-fluoro(4-phenyl-4H-1,2,4-triazol-3-yl)methyl)oxetan-3-yl)phenyl)-6-(((S)-2-isopropyl-4-methylpiperazin-1-yl)methyl)-4-(trifluoromethyl)isoindolin-1-one] gave a pIC50 of 5.25. Further, on c-Cbl, the negative logarithm of the IC50 (pIC50) was 5.08 and the “(fold-selectivity)” value is reported as “(1.5x)”.

For the compound `Cc1ccnn1CC1(c2cccc(N3Cc4c(cc(CN5CCN(C)C[C@@H]5C(C)C)cc4C(F)(F)F)C3=O)c2)COC1` [Compound 263, (S)-6-((2-isopropyl-4-methylpiperazin-1-yl)methyl)-2-(3-(3-((5-methyl-1H-pyrazol-1-yl)methyl)oxetan-3-yl)phenyl)-4-(trifluoromethyl)isoindolin-1-one], on Cbl-b, the pIC50 is 7.35. Further, at c-Cbl, the negative logarithm of the IC50 (pIC50) was 7.23 and the “(fold-selectivity)” value is on record as “(1.3x)”.

As for `Cc1ccn(CC2(c3cccc(N4Cc5c(cc(CN6CCN(C)C[C@@H]6C(C)C)cc5C(F)(F)F)C4=O)c3)COC2)n1` [Compound 264, (S)-6-((2-isopropyl-4-methylpiperazin-1-yl)methyl)-2-(3-(3-((3-methyl-1H-pyrazol-1-yl)methyl)oxetan-3-yl)phenyl)-4-(trifluoromethyl)isoindolin-1-one], at Cbl-b, the pIC50 was 5.15. Besides, on c-Cbl, the negative logarithm of the IC50 (pIC50) was 4.96 and the “(fold-selectivity)” value is recorded as “(1.5x)”.

`Cn1cnnc1CC1(c2cc(C3CCC3)nc(N3Cc4c(cccc4C(F)(F)F)C3=O)c2)COC1` [Compound 265, 2-(6-cyclobutyl-4-(3-((4-methyl-4H-1,2,4-triazol-3-yl)methyl)oxetan-3-yl)pyridin-2-yl)-4-(trifluoromethyl)isoindolin-1-one]: the negative logarithm of the IC50 (pIC50) is 6.06 against Cbl-b and 5.89 against c-Cbl. Besides, at c-Cbl, the “(fold-selectivity)” value is on record as “(1.4x)”.

`CC(C)[C@H]1CN(C)CCN1Cc1cc2c(c(C(F)(F)F)c1)CN(c1cccc(C3(Cc4nncn4C(F)F)COC3)c1)C2=O` [Compound 266, (S)-2-(3-(3-((4-(difluoromethyl)-4H-1,2,4-triazol-3-yl)methyl)-oxetan-3-yl)phenyl)-6-((2-isopropyl-4-methylpiperazin-1-yl)methyl)-4-(trifluoromethyl)-isoindolin-1-one]: the negative logarithm of the IC50 (pIC50) against Cbl-b is 7.89. Also, at c-Cbl, the negative-log IC50 (pIC50) was 8.01 and the “(fold-selectivity)” value is “(0.76x)”.

`CC(C)[C@H]1CN(C)CCN1Cc1cc2c(c(C(F)(F)F)c1)CN(c1cccc(C3([C@@H](F)c4nncn4C(F)F)COC3)c1)C2=O` [Compound 267, 2-(3-(3-((R)-(4-(difluoromethyl)-4H-1,2,4-triazol-3-yl)fluoromethyl)oxetan-3-yl)phenyl)-6-(((S)-2-isopropyl-4-methylpiperazin-1-yl)methyl)-4-(trifluoromethyl)isoindolin-1-one] showed a negative logarithm of the IC50 (pIC50) against Cbl-b of 7.77. On c-Cbl, the negative-log IC50 (pIC50) is 7.77 and the “(fold-selectivity)” value is recorded as “(1.0x)”.

As for `CC(C)[C@H]1CN(C)CCN1Cc1cc2c(c(C(F)(F)F)c1)CN(c1cccc(C3([C@H](F)c4nncn4C(F)F)COC3)c1)C2=O` [Compound 268, 2-(3-(3-((S)-(4-(difluoromethyl)-4H-1,2,4-triazol-3-yl)fluoromethyl)oxetan-3-yl)phenyl)-6-(((S)-2-isopropyl-4-methylpiperazin-1-yl)methyl)-4-(trifluoromethyl)isoindolin-1-one], the pIC50 on Cbl-b is 7.80. On c-Cbl, the negative-log IC50 (pIC50) was 7.96 and the “(fold-selectivity)” value is on record as “(0.68x)”.

As to `CC(C)[C@H]1CN(C)CCN1Cc1cc2c(c(C(F)(F)F)c1)CN(c1cccc(C3([C@@H](F)c4nc(F)cn4C)COC3)c1)C2=O` [Compound 269, 2-(3-(3-((R)-fluoro(4-fluoro-1-methyl-1H-imidazol-2-yl)methyl)oxetan-3-yl)phenyl)-6-(((S)-2-isopropyl-4-methylpiperazin-1-yl)methyl)-4-(trifluoromethyl)isoindolin-1-one], on Cbl-b, the pIC50 is 6.68. Further, at c-Cbl, the pIC50 is 6.33 and the “(fold-selectivity)” value is given as “(2.3x)”.

`CC(C)[C@H]1CN(C)CCN1Cc1cc2c(c(C(F)(F)F)c1)CN(c1cccc(C3([C@H](F)c4nc(F)cn4C)COC3)c1)C2=O` [Compound 270, 2-(3-(3-((S)-fluoro(4-fluoro-1-methyl-1H-imidazol-2-yl)methyl)oxetan-3-yl)phenyl)-6-(((S)-2-isopropyl-4-methylpiperazin-1-yl)methyl)-4-(trifluoromethyl)isoindolin-1-one] showed a negative-log IC50 (pIC50) at Cbl-b of 6.89. Moreover, at c-Cbl, the pIC50 was 6.46 and the “(fold-selectivity)” value is reported as “(2.6x)”.

Consider `CCn1cnnc1[C@@H](F)C1(c2cccc(N3Cc4c(cccc4C(F)(F)F)C3=O)c2)COC1` [Compound 271, (S)-2-(3-(3-((4-ethyl-4H-1,2,4-triazol-3-yl)fluoromethyl)oxetan-3-yl)phenyl)-4-(trifluoromethyl)isoindolin-1-one], for which the pIC50 against Cbl-b is 5.80; against c-Cbl, 5.72. Further, the “(fold-selectivity)” value at c-Cbl is “(1.2x)”.

Regarding `CCn1cnnc1[C@H](F)C1(c2cccc(N3Cc4c(cccc4C(F)(F)F)C3=O)c2)COC1` [Compound 272, (R)-2-(3-(3-((4-ethyl-4H-1,2,4-triazol-3-yl)fluoromethyl)oxetan-3-yl)phenyl)-4-(trifluoromethyl)isoindolin-1-one], the negative logarithm of the IC50 (pIC50) against Cbl-b was 5.09. Further, on c-Cbl, the negative logarithm of the IC50 (pIC50) was 4.96 and the “(fold-selectivity)” value is “(1.3x)”.

For `CC[C@@H]1CCC[C@H](c2cc3c(c(C(F)(F)F)c2)CN(c2cccc(C4(Cc5nncn5C)CC(F)(F)C4)c2)C3=O)N1` [Compound 274, 2-(3-(3,3-difluoro-1-((4-methyl-4H-1,2,4-triazol-3-yl)methyl)cyclobutyl)phenyl)-6-((2R,6R)-6-ethylpiperidin-2-yl)-4-(trifluoromethyl)isoindolin-1-one], the pIC50 on Cbl-b is 6.85. In addition, at c-Cbl, the negative-log IC50 (pIC50) was 6.66 and the “(fold-selectivity)” value is recorded as “(1.6x)”.

On to `C=CCNc1cc(C2(Cc3nncn3C)CCC2)cc(N2Cc3c(cc(CN4CCN(C)C[C@@H]4C(C)C)cc3C(F)(F)F)C2=O)n1` [Compound 275, (S)-2-(6-(allylamino)-4-(1-((4-methyl-4H-1,2,4-triazol-3-yl)methyl)cyclobutyl)pyridin-2-yl)-6-((2-isopropyl-4-methylpiperazin-1-yl)methyl)-4-(trifluoromethyl)isoindolin-1-one], for which the pIC50 against Cbl-b and against c-Cbl was 8.15 in each case. Further, on c-Cbl, the “(fold-selectivity)” value was “(1.0x)”.

Take `CNCc1cc2c(c(C(F)(F)F)c1)CN(c1cc(C3(Cc4nncn4C)COC3)cc(NC3CCCC3)n1)C2=O` [Compound 277, 2-(6-(cyclopentylamino)-4-(3-((4-methyl-4H-1,2,4-triazol-3-yl)methyl)oxetan-3-yl)pyridin-2-yl)-6-((methylamino)methyl)-4-(trifluoromethyl)isoindolin-1-one]: at Cbl-b, the pIC50 is 6.64. In addition, on c-Cbl, the pIC50 is 6.06 and the “(fold-selectivity)” value is on record as “(3.8x)”.

For the compound `CC(C)[C@H]1CN(C)CCN1Cc1cc2c(c(C(F)(F)F)c1)CN(c1cc(C3([C@@H](F)c4nncn4C)CCC3)cc(NCC3CC3)n1)C2=O` [Compound 278, 2-(6-((cyclopropylmethyl)amino)-4-(1-((R)-fluoro(4-methy-4H-1,2,4-triazol-3-yl)methyl)cyclobutyl)pyridin-2-yl)-6-(((S)-2-isopropyl-4-methylpiperazin-1-yl)methyl)-4-(trifluoromethyl)isoindolin-1-one], the negative-log IC50 (pIC50) on Cbl-b was 7.92. On c-Cbl, the pIC50 is 7.82 and the “(fold-selectivity)” value is “(1.2x)”.

Turning to `CC(C)[C@H]1CN(C)CCN1Cc1cc2c(c(C(F)(F)F)c1)CN(c1cc(C3([C@H](F)c4nncn4C)CCC3)cc(NCC3CC3)n1)C2=O` [Compound 279, 2-(6-((cyclopropylmethyl)amino)-4-(1-((S)-fluoro(4-methyl-4H-1,2,4-triazol-3-yl)methyl)cyclobutyl)pyridin-2-yl)-6-(((S)-2-isopropyl-4-methylpiperazin-1-yl)methyl)-4-(trifluoromethyl)isoindolin-1-one], the pIC50 on Cbl-b is 8.10; against c-Cbl, 8.00. The “(fold-selectivity)” value at c-Cbl is “(1.4x)”.

Turning to `CC(C)[C@H]1CN(C)CCN1Cc1cc2c(c(C(F)(F)F)c1)CN(c1cc(C3(Cc4nncn4C)CC(F)(F)C3)cc(N(C)C)n1)C2=O` [Compound 280, (S)-2-(4-(3,3-difluoro-1-((4-methyl-4H-1,2,4-triazol-3-yl)methyl)cyclobutyl)-6-(dimethylamino)pyridin-2-yl)-6-((2-isopropyl-4-methylpiperazin-1-yl)methyl)-4-(trifluoromethyl)isoindolin-1-one], the negative logarithm of the IC50 (pIC50) against Cbl-b is 7.92. Besides, on c-Cbl, the negative-log IC50 (pIC50) is 7.96 and the “(fold-selectivity)” value is reported as “(0.96x)”.

For the compound `CC(C)[C@H]1CN(C)CCN1Cc1cc(Cl)c2c(c1)C(=O)N(c1cccc(C3(Cc4nncn4C)CC(F)(F)C3)c1)C2` [Compound 281, (S)-4-chloro-2-(3-(3,3-difluoro-1-((4-methyl-4H-1,2,4-triazol-3-yl)methyl)cyclobutyl)phenyl)-6-((2-isopropyl-4-methylpiperazin-1-yl)methyl)isoindolin-1-one], the pIC50 against Cbl-b is 7.80; at c-Cbl, 7.96. In addition, the “(fold-selectivity)” value on c-Cbl is reported as “(0.68x)”.
